Measured values as given in patent US20030022878A1, “TELOMERASE INHIBITOR” (priority 1997, published 2003).
pKi: −log10 of the molar value. “And” between values parts separate entries of the source, which are not always exact repeats. Equal values may be shown once.

Legend:
[1] = biological target: T1, telomerase (Homo sapiens, UniProt O14746); assay: Telomerase inhibiting activity in cell-free system (TRAP method); assay type: biochemical
T1 construct: the resulting extract was centrifuged to obtain the supernatant as a cell extract for activity measurement; endogenous in cells
T1 sequence (O14746 whole entry): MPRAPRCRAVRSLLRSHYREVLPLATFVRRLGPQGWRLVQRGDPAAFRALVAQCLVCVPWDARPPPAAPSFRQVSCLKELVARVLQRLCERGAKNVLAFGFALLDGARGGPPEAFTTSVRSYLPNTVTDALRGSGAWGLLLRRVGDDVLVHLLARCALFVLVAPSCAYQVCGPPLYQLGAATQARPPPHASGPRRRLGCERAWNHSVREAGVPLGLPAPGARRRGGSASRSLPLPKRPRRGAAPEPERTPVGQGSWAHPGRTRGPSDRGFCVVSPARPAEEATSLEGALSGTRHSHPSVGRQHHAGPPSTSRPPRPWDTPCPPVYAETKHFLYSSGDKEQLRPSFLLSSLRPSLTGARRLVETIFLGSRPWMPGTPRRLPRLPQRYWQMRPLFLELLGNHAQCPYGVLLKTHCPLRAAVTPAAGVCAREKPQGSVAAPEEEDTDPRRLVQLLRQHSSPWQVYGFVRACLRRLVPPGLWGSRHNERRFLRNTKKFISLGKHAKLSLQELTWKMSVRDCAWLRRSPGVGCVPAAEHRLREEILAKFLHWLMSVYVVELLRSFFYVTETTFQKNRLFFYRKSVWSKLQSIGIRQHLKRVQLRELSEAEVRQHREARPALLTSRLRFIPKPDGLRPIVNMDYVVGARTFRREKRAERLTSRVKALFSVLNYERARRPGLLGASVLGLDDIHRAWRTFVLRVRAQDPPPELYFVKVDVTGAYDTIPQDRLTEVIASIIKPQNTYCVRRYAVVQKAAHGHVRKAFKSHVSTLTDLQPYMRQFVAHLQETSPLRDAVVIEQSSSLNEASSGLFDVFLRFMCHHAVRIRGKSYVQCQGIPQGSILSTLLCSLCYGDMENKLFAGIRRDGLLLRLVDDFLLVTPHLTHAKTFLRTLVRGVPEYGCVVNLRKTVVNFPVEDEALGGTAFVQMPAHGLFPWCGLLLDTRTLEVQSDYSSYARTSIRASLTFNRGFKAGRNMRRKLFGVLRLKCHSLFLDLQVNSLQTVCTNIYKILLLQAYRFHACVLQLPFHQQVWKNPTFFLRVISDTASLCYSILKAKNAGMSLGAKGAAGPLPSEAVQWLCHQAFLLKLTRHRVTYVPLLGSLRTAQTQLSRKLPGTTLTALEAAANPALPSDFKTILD
Procedure: Telomerase inhibiting activity of EGCG, EGC, ECG, and EC (all products of Sigma) was measured according to the Telomeric Repeat Amplification Protocol (TRAP) method described by Kim et al. (Kim, N. W. et al., Science, 266, 2011-2015, 1994) as follows:
Cells were washed with ice-cold PBS (phosphate buffered saline) and suspended again in PBS to count the cells. After centrifuging this cell suspension, the resulting cell mass was suspended in a TRAP assay buffer (10 mM Tris-HCl, pH 7.5, 1 mM MgCl2, 1 mM EDTA, 0.5% CHAPS, 10% glycerine, 5 mM 2-mercaptoethanol, and 0.1 mM 4-(2-aminoethyl)-benzenesulfonyl fluoride hydrochlorine), then the suspension was quick-frozen with liquid nitrogen. After melting, the suspension was allowed to stand in an ice bath for 30 minutes for extraction, then the resulting extract was centrifuged to obtain the supernatant as a cell extract for activity measurement. […]
The PCR products obtained in the abovementioned procedure were resolved by polyacrylamide gel electrophoresis and the resulting DNA bands stained with SYBR Green (Takara Shuzo) were detected by irradiation with a UV transilluminator.
The detected bands were photographed. The intensity of each band was quantitatively analyzed using the NIH Image 1.60 software program. Telomerase activity was expressed as the intensity of a sample band relative to that of the band corresponding to the ITAS fragment (control).
Telomerase activity in reaction solutions of 8 different EGCG concentrations ranging from 0.1 to 20 μM was measured in the same manner as described in Example 1 except that a primer, PS, was used at two different concentrations. […]
Telomerase activity in reaction solutions containing powder sample 1 obtained in Production Example 1, powder sample 2 (a tea catechin extract: THEA-FLAN 90S, a trade name, a product of ITO EN, Ltd), and EGCG at different concentrations in the following ranges was measured in the same manner as described in Example 1. […]

[2] = biological target: T2, intracellular telomerase activity, monoblastoid leukemia U937 cells (Homo sapiens, UniProt O14746); assay: Telomerase inhibiting activity in cells (Streptolysin O permeabilization, TRAP); assay type: cell-based; details: 15 μM EGCG for 2 hours
T2 construct: endogenous in cells; host or cells: U937
T2 sequence (O14746 whole entry): as above
Procedure: (§1) The telomerase inhibiting activity of EGCG was assayed in monoblastoid leukemia U937 cells (American Type Culture Collection, ATCC) and colon adenocarcinoma HT29 cells.
(§2) An RPMI1640 medium (Nissui) supplemented with 10% fetal bovine serum (FBS) was used for U937 cells, and an RPMI1640 medium supplemented with 5% FBS and 5% fetal calf serum (FCS) was used for HT29 cells.
(§3) The cells were incubated in a 15 μM EGCG solution for 2 hours and washed in PBS. The washed cells were suspended in an RPMI1640 medium (without serum) at a concentration of 2×10^6 cells/ml, then Streptolysin O (Sigma, 5 U/ml), TS primer (10 μM), spermidine (1 mM), and Imipramine (50 μM) were added, and the admixture was incubated at room temperature for 10 minutes. Streptolysin O is a substance which increases the permeability of a substance through the cell membrane, and enables the TS primers and other substances to be incorporated into the cell. […]
(§4) The telomerase products thus obtained were resolved by polyacrylamide gel electrophoresis, after which DNA bands were stained with SYBR Green (Takara Shuzo) and detected by irradiation with a UV transilluminator. The intensity of each band was quantitatively analyzed using the NIH Image 1.60 software program and telomerase activity was expressed as the intensity of a sample band relative to that of the band corresponding to the ITAS fragment (control). […]

[3] = biological target: T3, intracellular telomerase activity, colon adenocarcinoma HT29 cells (Homo sapiens, UniProt O14746); assay: as above; assay type: cell-based; details: 15 μM EGCG for 2 hours
T3 construct: endogenous in cells; host or cells: HT29
T3 sequence (O14746 whole entry): as above
Procedure: as §1, §2, §3, §4

[4] = tested on: malignant melanoma cells; details: oral administration; cited from earlier work
[5] = tested on: HT29 cells; assay: TRF (telomere) length by Southern blotting; assay type: cell-based; details: HT29 cells in crisis, 15 μM EGCG
Procedure: HT 29 cells from PD57 to PD60 in cell crisis were pooled and the genomic DNA was prepared by a salting-out/ethanol precipitation method (Stratagene). Further, integrity of the isolated genomic DNA was confirmed by gel electrophoresis (ethidium bromide staining).
The isolated genomic DNA (10 μg) was digested with HinfI and RsaI and the resulting digests were subjected to Southern blotting by the ordinary method, after which DNA fragments were detected using a TeloQuant assay kit (PharmMingen).
Accordingly, if a genomic DNA is digested with the abovementioned restriction enzymes, only the telomere region would remain undigested. This DNA fragment is called the Terminal Restriction Fragment (TRF) which can be detected by Southern blotting to analyze telomere lengths. TRFs of EGCG-treated or untreated HT29 cells obtained as mentioned above were detected using a TeloQuant assay kit. […] It was observed that TRFs in the cells which entered crisis due to the EGCG treatment (●) were shortened by about 1.1 kb as compared to those in the untreated cells (◯). Further, it was confirmed that successive EGCG treatment of HT29 cells caused telomere diminishment.

[6] = biological target: T4, telomerase, U937 cells (Homo sapiens, UniProt O14746); assay: Telomerase activity in extract of EGCG-treated cells (mechanism); assay type: cell-based; details: 15 μM EGCG for 2 hours, washed, extracted
T4 construct: endogenous in cells; host or cells: U937
T4 sequence (O14746 whole entry): as above
Procedure: (§5) The cells were treated with 15 μM EGCG for 2 hours and washed with ice-cold PBS. The cell mass obtained by centrifugation was suspended in a TRAP assay buffer and the resulting suspension was quick-frozen with liquid nitrogen. After melting, the suspension was allowed to stand in an ice bath for 30 minutes, then the resulting extract was centrifuged to obtain the supernatant as a cell extract. A test compound, TS primer (50 ng), 50 μM dNTPs, and T4g32 protein (Behringer-Manheim) were added to a specified volume of the cell extract (corresponding to 200 to 1000 cells), and the admixture was incubated at 20° C. for 30 minutes. After reaction, CX primer (100 ng) was added to the reaction solution, then PCR was performed in the presence of Gene Taq DNA polymerase (2 U) and ITAS (10^−18 g), i.e., (94° C., 40 seconds→50° C., 40 seconds→72° C., 60 seconds)×30 cycles→72° C., 2 minutes, to obtain PCR products. The PCR products thus obtained were resolved by polyacrylamide gel electrophoresis and the resulting DNA bands stained with SYBR Green (Takara Shuzo) were detected by irradiation with a UV transilluminator. The intensity of each band was quantitatively analyzed using the NIH Image 1.60 software program. Telomerase activity was expressed as the intensity of a sample band relative to that of the band corresponding to the ITAS fragment. […]

[7] = biological target: T5, telomerase, HT29 cells (Homo sapiens, UniProt O14746); assay: as above; assay type: cell-based; details: 15 μM EGCG for 2 hours, washed, extracted
T5 construct: endogenous in cells; host or cells: HT29
T5 sequence (O14746 whole entry): as above
Procedure: as §5

[8] = tested on: experimentally-induced tumors; details: nude mice with experimentally-induced tumors; cited from earlier work
[9] = tested on: U937 cells; assay: Effect of EGCG on cell growth in subculture; assay type: cell-based; details: U937 subculture lines, medium with 15 μM EGCG
Procedure: (§6) U937 cells and HT29 cells were each subcultured on a medium with and without EGCG to study the effect of addition of EGCG on cell growth. The medium used was the same as used in Example 4. Five subculture lines for U937 cells and nine subculture lines for HT29 cells were prepared. The first culture of each line was made by inoculating cells of each stock culture at a density of 5×10^5 cells per 10-cm dish. For each subculture, two lines were cultured on a medium without EGCG (control lines) and the rest of the lines were cultured on a medium supplemented with 15 μM EGCG. Cells were passaged, sampled and counted every four days. The incubation medium was freshly changed every day. […] PD is the number of cycles in which the cell population doubles during cell growth and is calculated by monitoring cell counts using a hemocytometer.

[10] = tested on: HT29 cells; assay: Effect of EGCG on cell growth in subculture; assay type: cell-based; details: HT29 subculture lines, medium with 15 μM EGCG
Procedure: as §6

## (−) epigallocatechin gallate [EGCG]
[1]; Dixon plot, EGCG 0.1 to 20 μM, primer at two concentrations
  pKi: ~7.00
[1]; TRAP, cell extract
  telomerase inhibiting activity compared among catechins (FIG. 1): highest inhibiting activity
[1]; concentration suppressing DNA amplification of control by 50%, samples tested in μg/ml ranges
  Telomerase inhibition, IC50: 0.25
[2]
  intracellular telomerase activity: markedly inhibited
[3]
  intracellular telomerase activity: markedly inhibited
[4]
  metastasis of malignant melanoma cells: suppressed
[5]
  shortening of TRFs compared to untreated cells: about 1.1 kb
[6]
  telomerase activity tested in vitro in extract after treatment of cells: no effect
[7]
  telomerase activity tested in vitro in extract after treatment of cells: no effect
[8]
  cancer cell growth in nude mice: effectively suppressed
[9]
  day at which cells entered cell crisis: 53 days and 44 days and 29 days
[10]
  day at which cells entered cell crisis: 75 days and 57 days
